# Laboratory results as given in ChEMBL document CHEMBL1144811, “Design and synthesis of morpholine derivatives. SAR for dual serotonin & noradrenaline reuptake inhibition” (Bioorg Med Chem Lett, 2008).
# Activity calls are given as the source filed them. The calls are words filed in the database; no cut-off is given here.
# Experiments:
# [1] = biological target: Sodium-dependent noradrenaline transporter (Homo sapiens, UniProt P23975); assay: biochemical
# Description: Inhibition of [3H]nisoxetine reuptake at human NET expressed in HEK293 cells
# [2] = biological target: Sodium-dependent serotonin transporter (Homo sapiens, UniProt P31645); assay: biochemical
# Description: Inhibition of [3H]citalopram uptake at human 5HTT expressed in HEK293 cells
# Histamine H1 receptor [3] = biological target: T1, Histamine H1 receptor (Homo sapiens, UniProt P35367); assay: Inhibition of histamine H1 receptor
# [4] = biological target: T2, Sodium-dependent dopamine transporter (Homo sapiens, UniProt Q01959)
# Description: (§1) Inhibition of [3H]dopamine reuptake at human DAT expressed in HEK293 cells
# [5] = pKa, dissociation constant of the compound; type: physicochemical
# [6] = Partition coefficient, log D at pH 7.4; type: physicochemical; conditions: octanol/water
# Caco-2 [7] = assay: Permeability from apical to basolateral side of human Caco-2 cell membrane at 10 uM; type: ADME, cell-based; conditions: caco-2, 10 µM
# Cytochrome P450 2D6 = Cytochrome P450 2D6 (Homo sapiens, UniProt P10635); assay: Inhibition of CYP2D6; type: ADME
# Rattus norvegicus [8] = assay: Increase in noradrenaline level in prefrontal cortex interstitial fluid of rat at 10 mg/kg, sc; type: functional; conditions: route subcutaneous
# Histamine H1 receptor [9] = biological target: T1, Histamine H1 receptor; assay: Inhibition of histamine H1 receptor at 10 uM
# Rattus norvegicus [10] = assay: Increase in 5-hydroxytryptamine level in prefrontal cortex interstitial fluid of rat at 10 mg/kg, sc; type: functional; conditions: route subcutaneous
# [11] = Metabolic stability in human hepatocytes; type: ADME, cell-based, Liver, Hepatocyte
# Caco-2 [12] = assay: Permeability from basolateral to apical side of human Caco-2 cell membrane at 10 uM; type: ADME, cell-based; conditions: caco-2, 10 µM
# Cytochrome P450 2C9 = Cytochrome P450 2C9 (Homo sapiens, UniProt P11712); assay: Inhibition of CYP2C9; type: ADME
# [13] = Metabolic stability in human liver microsomes; type: ADME, Microsome
# MDCK [14] = assay: Permeability from basolateral to apical side of P-gp expressing MDCK cell membrane at 10 uM; type: ADME, cell-based, Canis lupus familiaris; conditions: dog
# [15] = biological target: Norepinephrine transporter (Rattus norvegicus, UniProt Q9WTR4); assay: Inhibition of rat NET expressed in HEK293 cells; type: cell-based
# Cytochrome P450 3A4 = Cytochrome P450 3A4 (Homo sapiens, UniProt P08684); assay: Inhibition of CYP3A4; type: ADME
# [16] = Inhibition of sodium channel site 2
# [17] = biological target: Voltage-gated inwardly rectifying potassium channel KCNH2 (Homo sapiens, UniProt Q12809); assay: Displacement of [3H]dofetilide from human ERG
# [18] = biological target: Sodium-dependent serotonin transporter (Rattus norvegicus, UniProt P31652); assay: Inhibition of rat 5HTT expressed in HEK293 cells; type: cell-based
# Cytochrome P450 2C19 = Cytochrome P450 2C19 (Homo sapiens, UniProt P33261); assay: Inhibition of CYP2C19; type: ADME
# Cytochrome P450 1A2 = biological target: T3, Cytochrome P450 1A2 (Homo sapiens, UniProt P05177); assay: Inhibition of CYP1A2; type: ADME
# T3 sequence (P05177 whole entry): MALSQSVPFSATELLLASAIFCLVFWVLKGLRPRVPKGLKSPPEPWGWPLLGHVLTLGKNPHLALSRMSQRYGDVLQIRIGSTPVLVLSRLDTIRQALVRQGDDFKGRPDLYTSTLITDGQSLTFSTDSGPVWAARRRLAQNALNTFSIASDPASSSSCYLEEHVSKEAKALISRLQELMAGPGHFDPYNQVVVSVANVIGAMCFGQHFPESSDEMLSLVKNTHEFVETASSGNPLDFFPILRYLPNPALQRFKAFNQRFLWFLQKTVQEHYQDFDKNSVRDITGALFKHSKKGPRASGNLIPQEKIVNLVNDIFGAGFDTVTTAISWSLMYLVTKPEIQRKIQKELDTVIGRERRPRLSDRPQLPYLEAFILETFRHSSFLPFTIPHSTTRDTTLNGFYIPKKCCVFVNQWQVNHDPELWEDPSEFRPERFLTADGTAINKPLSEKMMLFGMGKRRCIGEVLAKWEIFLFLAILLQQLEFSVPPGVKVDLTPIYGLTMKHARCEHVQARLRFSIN
# MDCK [19] = assay: Permeability from apical to basolateral side of P-gp expressing MDCK cell membrane at 10 uM; type: ADME, cell-based, Canis lupus familiaris; conditions: dog
# [20] = Inhibition of calcium channel L type at diltiazem site
# Histamine H1 receptor [21] = biological target: T1, Histamine H1 receptor
# [22] = biological target: T2, Sodium-dependent dopamine transporter; conditions: hek293
# Description: as §1
# T2 sequence (Q01959 whole entry): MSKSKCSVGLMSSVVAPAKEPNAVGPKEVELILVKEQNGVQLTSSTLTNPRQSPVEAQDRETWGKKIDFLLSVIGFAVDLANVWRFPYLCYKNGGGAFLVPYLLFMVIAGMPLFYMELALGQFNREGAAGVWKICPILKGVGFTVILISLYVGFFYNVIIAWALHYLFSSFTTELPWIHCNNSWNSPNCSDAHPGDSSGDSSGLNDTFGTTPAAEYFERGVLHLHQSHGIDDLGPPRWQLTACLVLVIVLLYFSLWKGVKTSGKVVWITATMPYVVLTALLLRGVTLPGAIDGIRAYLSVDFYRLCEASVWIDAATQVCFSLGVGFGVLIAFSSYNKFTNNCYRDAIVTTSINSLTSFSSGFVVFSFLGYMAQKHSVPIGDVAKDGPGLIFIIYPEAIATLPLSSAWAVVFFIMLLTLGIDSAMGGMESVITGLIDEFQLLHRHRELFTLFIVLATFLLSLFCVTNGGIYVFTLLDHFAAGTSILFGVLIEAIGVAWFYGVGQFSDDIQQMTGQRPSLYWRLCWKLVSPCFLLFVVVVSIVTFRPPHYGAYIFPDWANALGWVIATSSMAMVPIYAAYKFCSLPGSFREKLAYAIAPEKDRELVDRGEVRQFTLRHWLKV
# Chain of Sodium-dependent noradrenaline transporter (P23975 whole entry): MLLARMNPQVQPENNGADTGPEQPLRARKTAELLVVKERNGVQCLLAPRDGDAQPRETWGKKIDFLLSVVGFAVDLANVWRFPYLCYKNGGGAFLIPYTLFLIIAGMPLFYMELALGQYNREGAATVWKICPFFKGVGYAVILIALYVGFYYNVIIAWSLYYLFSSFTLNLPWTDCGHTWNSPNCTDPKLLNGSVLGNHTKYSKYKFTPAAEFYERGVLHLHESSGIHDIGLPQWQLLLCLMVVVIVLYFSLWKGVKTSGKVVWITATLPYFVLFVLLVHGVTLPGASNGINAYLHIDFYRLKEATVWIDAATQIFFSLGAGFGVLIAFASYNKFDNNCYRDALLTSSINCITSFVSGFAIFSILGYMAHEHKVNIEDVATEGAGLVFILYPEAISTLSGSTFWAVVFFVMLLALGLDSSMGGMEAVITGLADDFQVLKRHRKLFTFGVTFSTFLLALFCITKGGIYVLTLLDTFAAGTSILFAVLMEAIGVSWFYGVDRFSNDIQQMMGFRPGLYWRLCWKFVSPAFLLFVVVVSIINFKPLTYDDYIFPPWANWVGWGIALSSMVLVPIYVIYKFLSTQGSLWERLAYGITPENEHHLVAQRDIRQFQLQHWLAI
# Chain of Sodium-dependent serotonin transporter (Homo sapiens, UniProt P31645) (P31645 whole entry): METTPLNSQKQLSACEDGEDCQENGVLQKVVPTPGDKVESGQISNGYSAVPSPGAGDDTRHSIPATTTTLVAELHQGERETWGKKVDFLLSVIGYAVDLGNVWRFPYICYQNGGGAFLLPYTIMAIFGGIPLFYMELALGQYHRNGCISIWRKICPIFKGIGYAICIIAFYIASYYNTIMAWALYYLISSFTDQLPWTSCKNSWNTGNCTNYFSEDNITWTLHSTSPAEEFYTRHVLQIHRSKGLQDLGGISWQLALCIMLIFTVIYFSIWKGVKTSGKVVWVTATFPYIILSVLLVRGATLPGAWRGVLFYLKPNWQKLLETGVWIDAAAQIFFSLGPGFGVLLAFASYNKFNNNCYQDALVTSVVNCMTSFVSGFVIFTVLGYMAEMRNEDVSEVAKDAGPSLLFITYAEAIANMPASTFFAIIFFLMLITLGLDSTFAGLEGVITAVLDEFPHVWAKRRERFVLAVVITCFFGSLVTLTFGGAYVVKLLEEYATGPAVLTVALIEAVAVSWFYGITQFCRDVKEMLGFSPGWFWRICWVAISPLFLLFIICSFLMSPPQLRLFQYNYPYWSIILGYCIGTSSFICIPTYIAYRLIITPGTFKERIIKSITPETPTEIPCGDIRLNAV
# T1 sequence (P35367 whole entry): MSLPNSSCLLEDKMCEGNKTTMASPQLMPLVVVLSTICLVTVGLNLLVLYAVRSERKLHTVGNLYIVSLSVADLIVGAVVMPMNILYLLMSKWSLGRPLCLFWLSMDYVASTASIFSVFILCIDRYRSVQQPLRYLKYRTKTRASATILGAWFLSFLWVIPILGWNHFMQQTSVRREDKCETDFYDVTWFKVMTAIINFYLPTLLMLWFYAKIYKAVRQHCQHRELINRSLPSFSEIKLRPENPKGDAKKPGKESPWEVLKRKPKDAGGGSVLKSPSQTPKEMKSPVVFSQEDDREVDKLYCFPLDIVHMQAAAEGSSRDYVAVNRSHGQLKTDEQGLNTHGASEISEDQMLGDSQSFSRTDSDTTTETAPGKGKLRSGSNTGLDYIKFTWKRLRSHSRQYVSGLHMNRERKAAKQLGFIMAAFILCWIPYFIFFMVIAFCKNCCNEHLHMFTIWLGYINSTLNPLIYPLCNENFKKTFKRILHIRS
# Chain of Voltage-gated inwardly rectifying potassium channel KCNH2 (Q12809 whole entry): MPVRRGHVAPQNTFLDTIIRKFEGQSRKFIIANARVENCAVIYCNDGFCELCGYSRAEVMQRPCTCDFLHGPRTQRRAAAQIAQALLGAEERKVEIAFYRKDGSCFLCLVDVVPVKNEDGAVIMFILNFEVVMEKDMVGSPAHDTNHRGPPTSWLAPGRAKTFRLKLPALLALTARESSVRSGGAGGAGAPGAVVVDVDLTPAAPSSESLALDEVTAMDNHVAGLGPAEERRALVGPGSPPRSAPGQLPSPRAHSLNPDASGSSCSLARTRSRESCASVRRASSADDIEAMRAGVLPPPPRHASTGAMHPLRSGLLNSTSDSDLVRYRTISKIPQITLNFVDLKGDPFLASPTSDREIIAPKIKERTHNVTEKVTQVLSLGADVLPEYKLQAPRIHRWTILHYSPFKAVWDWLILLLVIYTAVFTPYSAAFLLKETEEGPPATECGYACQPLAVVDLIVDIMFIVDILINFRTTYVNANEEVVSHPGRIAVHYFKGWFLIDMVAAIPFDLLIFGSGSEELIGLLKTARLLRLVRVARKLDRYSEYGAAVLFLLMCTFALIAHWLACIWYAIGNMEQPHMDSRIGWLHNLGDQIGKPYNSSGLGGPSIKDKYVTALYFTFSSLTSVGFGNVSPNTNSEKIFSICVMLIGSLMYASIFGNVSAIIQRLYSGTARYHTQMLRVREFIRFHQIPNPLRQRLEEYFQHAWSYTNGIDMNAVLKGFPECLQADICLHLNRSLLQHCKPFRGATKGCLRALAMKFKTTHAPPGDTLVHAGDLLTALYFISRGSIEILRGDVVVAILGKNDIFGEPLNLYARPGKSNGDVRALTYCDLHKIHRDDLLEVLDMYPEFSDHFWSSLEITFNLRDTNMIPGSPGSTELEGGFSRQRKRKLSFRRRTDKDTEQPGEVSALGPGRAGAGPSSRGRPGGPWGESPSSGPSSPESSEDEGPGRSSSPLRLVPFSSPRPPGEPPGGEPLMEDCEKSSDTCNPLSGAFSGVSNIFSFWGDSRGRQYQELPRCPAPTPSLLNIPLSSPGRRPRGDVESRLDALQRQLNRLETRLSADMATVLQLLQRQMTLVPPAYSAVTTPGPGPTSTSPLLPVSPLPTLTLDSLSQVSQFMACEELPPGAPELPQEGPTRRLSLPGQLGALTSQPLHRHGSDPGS
# Chain of Sodium-dependent serotonin transporter (Rattus norvegicus, UniProt P31652) (P31652 whole entry): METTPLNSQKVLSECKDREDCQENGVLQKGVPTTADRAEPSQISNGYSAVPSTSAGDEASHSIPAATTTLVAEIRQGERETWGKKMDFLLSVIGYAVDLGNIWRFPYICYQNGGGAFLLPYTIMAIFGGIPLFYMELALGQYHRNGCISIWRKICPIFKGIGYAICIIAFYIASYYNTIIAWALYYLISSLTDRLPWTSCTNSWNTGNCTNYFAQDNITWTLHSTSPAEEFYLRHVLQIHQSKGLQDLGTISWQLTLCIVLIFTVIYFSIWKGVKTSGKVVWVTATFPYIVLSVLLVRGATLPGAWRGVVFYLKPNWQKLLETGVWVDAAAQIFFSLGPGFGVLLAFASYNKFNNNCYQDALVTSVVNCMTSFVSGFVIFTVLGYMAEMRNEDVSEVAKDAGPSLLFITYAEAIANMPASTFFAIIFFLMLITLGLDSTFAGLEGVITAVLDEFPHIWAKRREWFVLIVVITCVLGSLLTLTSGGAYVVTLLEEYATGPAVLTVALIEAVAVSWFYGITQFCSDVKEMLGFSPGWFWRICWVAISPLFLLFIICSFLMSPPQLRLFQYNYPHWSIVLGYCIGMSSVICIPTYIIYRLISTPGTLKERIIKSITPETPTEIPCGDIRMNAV
# Chain of Norepinephrine transporter (Q9WTR4 whole entry): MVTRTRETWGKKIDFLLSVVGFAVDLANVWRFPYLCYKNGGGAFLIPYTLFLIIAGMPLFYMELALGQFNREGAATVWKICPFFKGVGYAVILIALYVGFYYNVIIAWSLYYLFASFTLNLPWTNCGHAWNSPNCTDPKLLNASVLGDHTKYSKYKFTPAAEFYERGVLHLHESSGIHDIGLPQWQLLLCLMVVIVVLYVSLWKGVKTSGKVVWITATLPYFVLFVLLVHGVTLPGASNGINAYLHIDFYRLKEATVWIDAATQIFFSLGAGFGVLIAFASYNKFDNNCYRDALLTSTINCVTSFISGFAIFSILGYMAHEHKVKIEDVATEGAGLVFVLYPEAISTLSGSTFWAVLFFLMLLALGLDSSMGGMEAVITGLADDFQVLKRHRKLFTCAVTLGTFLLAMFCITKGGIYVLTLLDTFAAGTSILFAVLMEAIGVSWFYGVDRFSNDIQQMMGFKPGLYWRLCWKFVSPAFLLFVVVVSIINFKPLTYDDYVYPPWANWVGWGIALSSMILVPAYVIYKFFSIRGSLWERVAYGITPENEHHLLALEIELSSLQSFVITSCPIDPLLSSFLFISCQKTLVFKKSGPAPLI
Structure (SMILES),Ki [1] [nM],Ki [2] [nM],Ki [4] [nM],further results
COc1cc(Cl)ccc1OC(c1ccccc1)C1CNCCO1 (racemic; syn),–,–,5050,pKa [5]: 7.7; logD [6]: 1.9
COc1cc(Cl)ccc1O[C@@H](c1cccc(C)c1)[C@@H]1CNCCO1,16,69,–,–
COc1cc(Cl)ccc1O[C@@H](c1ccc(F)cc1)[C@@H]1CNCCO1,29,62,–,–
COc1cc(Cl)ccc1O[C@@H](c1ccccc1)[C@@H]1CNCCO1,–,–,1570,Papp (Caco-2 [7]): 18 10^-6/cm; IC50 (Cytochrome P450 2D6): > 29000 nM; Activity (Rattus norvegicus [8]): 170%; inhibition (Histamine H1 receptor [9]): < 20%; Activity (Rattus norvegicus [10]): 160%; half-life [11]: 3.1 h; Papp (Caco-2 [12]): 16 10^-6/cm; IC50 (Cytochrome P450 2C9): > 29000 nM; half-life [13]: > 2 h; Papp (MDCK [14]): 35 10^-6/cm; Ki [15]: 6 nM; IC50 (Cytochrome P450 3A4): > 29000 nM; Ki [16]: 1200 nM; Ki [17]: 3300 nM; Ki [18]: 59 nM; IC50 (Cytochrome P450 2C19): > 29000 nM; IC50 (Cytochrome P450 1A2): > 29000 nM; Papp (MDCK [19]): 22 10^-6/cm; Ki [20]: 2000 nM
COc1cc(Br)ccc1O[C@@H](c1ccccc1)[C@@H]1CNCCO1,–,30,–,–
COc1cc(F)ccc1O[C@@H](c1ccccc1)[C@@H]1CNCCO1,6,740,3080,Activity (Histamine H1 receptor [3]): inactive
Fc1ccc(O[C@H](c2ccccc2)[C@H]2CNCCO2)c(Cl)c1,–,–,760,Ki (Histamine H1 receptor [21]): 10 nM
CCOc1c(Cl)cccc1OC(c1ccccc1)C1CNCCO1 (racemic; syn),275,240,–,Ki [22]: > 10000 nM
Fc1cccc(O[C@H](c2ccccc2)[C@H]2CNCCO2)c1F,130,12,380,Ki (Histamine H1 receptor [21]): 10 nM
Fc1cccc(O[C@@H](c2ccccc2)[C@@H]2CNCCO2)c1F,10,3390,2600,Activity (Histamine H1 receptor [3]): inactive
CCOc1cc(Cl)ccc1OC(c1ccccc1)C1CNCCO1 (racemic; anti),390,220,1670,–
COc1cc(Cl)ccc1OC(c1ccccc1)C1CNCCO1 (racemic; anti),–,–,2200,–
c1ccc([C@H](Oc2cccc3c2OCC3)[C@@H]2CNCCO2)cc1,12,1800,–,Activity (Histamine H1 receptor [3]): inactive
Cc1cc(F)ccc1O[C@@H](c1ccccc1)[C@@H]1CNCCO1,18,185,1250,Activity (Histamine H1 receptor [3]): inactive
COc1cc(Cl)ccc1O[C@@H](c1ccc(C)cc1)[C@@H]1CNCCO1,180,88,1650,–
COc1cc(F)ccc1O[C@H](c1ccccc1)[C@H]1CNCCO1,610,22,–,Ki (Histamine H1 receptor [21]): 10 nM
c1ccc([C@@H](Oc2cccc3c2OCC3)[C@H]2CNCCO2)cc1,350,20,5750,Ki (Histamine H1 receptor [21]): 10 nM
COc1cc(Cl)ccc1O[C@H](c1ccccc1)[C@H]1CNCCO1,–,–,1790,Ki (Histamine H1 receptor [21]): 26 nM
Clc1cccc(O[C@@H](c2ccccc2)[C@@H]2CNCCO2)c1Cl,17,100,420,–

# Further lines, with some results ahead:
Ki [1] [nM],Ki [2] [nM],Ki [4] [nM],Structure (SMILES),further results
210,110,–,COc1cc(C#N)ccc1O[C@@H](c1ccccc1)[C@@H]1CNCCO1,–
–,–,1170,Fc1ccc(O[C@@H](c2ccccc2)[C@@H]2CNCCO2)c(Cl)c1,Activity (Histamine H1 receptor [3]): inactive
9,58,10800,COc1cc(Cl)ccc1O[C@@H](c1cccc(F)c1)[C@@H]1CNCCO1,–
22,70,–,COc1cc(Cl)ccc1O[C@@H](c1ccccc1F)[C@@H]1CNCCO1,–
15,60,1540,CCOc1cc(Cl)ccc1OC(c1ccccc1)C1CNCCO1 (racemic; syn),–
160,41,–,COc1cc(C(F)(F)F)ccc1O[C@@H](c1ccccc1)[C@@H]1CNCCO1,–
1490,340,> 10000,CCOc1c(Cl)cccc1OC(c1ccccc1)C1CNCCO1 (racemic; anti),–
28,96,1090,COc1ccc(O[C@@H](c2ccccc2)[C@@H]2CNCCO2)c(Cl)c1,–
84,70,–,COc1cc(Cl)ccc1O[C@@H](c1ccccc1C)[C@@H]1CNCCO1,–
860,34,950,Cc1cc(F)ccc1O[C@H](c1ccccc1)[C@H]1CNCCO1,Ki (Histamine H1 receptor [21]): 10 nM
